The source of these data is patent US12612412B2, “Antiviral heterocyclic compounds” (Enanta Pharmaceuticals, Inc., priority 2021, dated 2026).

In general, pEC50 refers to the EC50 on a negative log10 scale, so that one unit is a factor of ten.

pEC50: −log10 of the molar value. A value given as a limit tells only on which side of the number the result lay.

Assay [1] relates to genotype A, "Long" strain RSV. As to the kind of experiment: RSV-A assay (CPE protection in Hep-2 cells, ATPlite readout). To be noted: human respiratory syncytial virus, RSV-A Long strain, MOI 0.1, CPE protection, read-out: Human RSV-A (“Long”) EC50. In kind it is cell-based, Human respiratory syncytial virus (HRSV). The essentials:
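Hep-2 cells (8,000/well) infected with RSV Long strain at MOI 0.1 in the presence of 2-fold compound dilutions in duplicate. After 5 days, cell viability measured by ATPlite luminescence, normalized between virus-only and uninfected cell controls; EC50 reported.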
For orientation: ATP-based viability assays read luminescence as a measure of living cells.

For assay [2], the system named is HMPV clinical isolate TN/1501/A1. As to the kind of experiment: HMPV antiviral assay Method-B (clinical isolate TN/1501/A1 in LLC-MK2 cells, ATP-Lite readout). It counts as cell-based, Human metapneumovirus (HMPV). The note with it: human metapneumovirus, LLC-MK2, 144 h, hMPV WT1501 (clinical isolate TN/1501/A1), 6 days. In a few lines: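 EC50 derived by four-parameter logistic fit of percent cell health, measured by ATP-Lite luminescence and normalised to virus-only and uninfected-cell controls. Compounds run in duplicate from 10 μM top, 3-fold, 10 points. Infection: LLC-MK2 cells, MOI 0.014, 2 μg/mL final TPCK-trypsin, serum-free, 6 days at 37° C.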

Turning to `COc1cc(C(=O)NC[C@](O)(c2cc3c(c(-c4ccc5c(c4)OC(F)(F)O5)n2)OC[C@]3(C(N)=O)C(F)F)C2CC2)cc2cn(C3CC3)nc12` [Example 1010], the results for the pEC50 in assay [1] and in assay [2] were < 6.70 and < 6.30, respectively.
Regarding `COc1cc(C(=O)NC[C@](O)(c2cc3c(c(-c4ccc5c(c4)OC(F)(F)O5)n2)OC[C@@]3(C(N)=O)C(F)F)C2CC2)cc2cn(C3CC3)nc12` [Example 1011], the pEC50 in assay [1] is > 6.70; in assay [2] it was > 6.30.
The corresponding values for `COc1cc(C(=O)NC[C@](O)(c2cc3c(c(-c4ccc5c(c4)OC(F)(F)O5)n2)OC[C@]3(C(N)=O)C(F)F)C2CC2)cc2cc(C3CC3)nn12` [Example 1012] are < 6.70 and < 6.30.
The corresponding values for `COc1cc(C(=O)NC[C@](O)(c2cc3c(c(-c4ccc5c(c4)OC(F)(F)O5)n2)OC[C@@]3(C(N)=O)C(F)F)C2CC2)cc2cc(C3CC3)nn12` [Example 1013] are > 6.70 and > 6.30.
The corresponding values for `COc1cc(C(=O)NC[C@](O)(c2cc3c(c(-c4ccc5c(c4)OC(F)(F)O5)n2)OC[C@]3(C(N)=O)C(F)F)C2CC2)cc2cc(Cl)c(C)nc12` [Example 1014] are > 6.70 and > 6.30.
Take `COc1cc(C(=O)NC[C@](O)(c2cc3c(c(-c4ccc5c(c4)OC(F)(F)O5)n2)OC[C@@]3(C(N)=O)C(F)F)C2CC2)cc2cc(Cl)c(C)nc12` [Example 1015]: the values for the negative logarithm of the EC50 (pEC50) in assay [1] and in assay [2] were > 6.70 and > 6.30, respectively.
The corresponding values for `COc1cc(C(=O)NC[C@](O)(c2cc3c(c(-c4ccc(F)c(Cl)c4)n2)OC[C@]3(C(N)=O)C(F)F)C(F)(F)F)cc2sc(C3CC3)nc12` [Example 1016] are < 6.70 and < 6.30.
In the case of `COc1cc(C(=O)NC[C@](O)(c2cc3c(c(-c4ccc(F)c(Cl)c4)n2)OC[C@@]3(C(N)=O)C(F)F)C(F)(F)F)cc2sc(C3CC3)nc12` [Example 1017], the negative-log EC50 (pEC50) in assay [1] was > 6.70; in assay [2], > 6.30.
Taken in the same sequence, the figures for `COc1cc(C(=O)NC[C@](O)(c2cc3c(c(-c4ccc(F)c(Cl)c4)n2)OC[C@]3(C(N)=O)C(F)F)C(F)(F)F)cc2sc(C)nc12` [Example 1018] were < 6.70 and < 6.30.
The corresponding values for `COc1cc(C(=O)NC[C@](O)(c2cc3c(c(-c4ccc(F)c(Cl)c4)n2)OC[C@@]3(C(N)=O)C(F)F)C(F)(F)F)cc2sc(C)nc12` [Example 1019] are > 6.70 and > 6.30.
As for `Cc1cnc2c(OC(F)F)cc(C(=O)NC[C@](O)(c3cc4c(c(-c5ccc6c(c5)OC(F)(F)O6)n3)OC[C@]4(C(N)=O)C(F)F)C3CC3)cc2c1` [Example 1020], the pEC50 is < 6.70 in assay [1] and < 6.30 in assay [2].
The corresponding values for `Cc1cnc2c(OC(F)F)cc(C(=O)NC[C@](O)(c3cc4c(c(-c5ccc6c(c5)OC(F)(F)O6)n3)OC[C@@]4(C(N)=O)C(F)F)C3CC3)cc2c1` [Example 1021] are > 6.70 and > 6.30.
Taken in the same sequence, the figures for `COc1cc(C(=O)NC[C@](O)(c2cc3c(c(-c4ccc(F)cc4)n2)OC[C@]3(C(N)=O)C(F)F)C2CC2)cc2cn(C3CC3)nc12` [Example 1022] were < 6.70 and < 6.30.
The corresponding values for `COc1cc(C(=O)NC[C@](O)(c2cc3c(c(-c4ccc(F)cc4)n2)OC[C@@]3(C(N)=O)C(F)F)C2CC2)cc2cn(C3CC3)nc12` [Example 1023] are > 6.70 and > 6.30.
Regarding `COc1cc(C(=O)NC[C@](O)(c2cc3c(c(-c4ccc(F)c(Cl)c4)n2)OC[C@]3(C(N)=O)C(F)F)C2CC2)cc2cn(C3CC3)nc12` [Example 1024], the negative-log EC50 (pEC50) in assay [1] is < 6.70; in assay [2], < 6.30.
In the case of `COc1cc(C(=O)NC[C@](O)(c2cc3c(c(-c4ccc(F)c(Cl)c4)n2)OC[C@@]3(C(N)=O)C(F)F)C2CC2)cc2cn(C3CC3)nc12` [Example 1025], the negative-log EC50 (pEC50) in assay [1] is > 6.70; in assay [2], > 6.30.
Taken in the same sequence, the figures for `Cc1cnc2c(OC(F)F)cc(C(=O)NC[C@](O)(c3cc4c(c(-c5ccc(F)cc5)n3)OC[C@]4(C(N)=O)C(F)F)C3CC3)cc2c1` [Example 1026] were < 6.70 and < 6.30.
As to `Cc1cnc2c(OC(F)F)cc(C(=O)NC[C@](O)(c3cc4c(c(-c5ccc(F)cc5)n3)OC[C@@]4(C(N)=O)C(F)F)C3CC3)cc2c1` [Example 1027], the values for the pEC50 in assay [1] and in assay [2] were > 6.70 and > 6.30, respectively.
Taken in the same sequence, the figures for `Cc1cnc2c(OC(F)F)cc(C(=O)NC[C@](O)(c3cc4c(c(-c5ccc(F)c(Cl)c5)n3)OC[C@]4(C(N)=O)C(F)F)C3CC3)cc2c1` [Example 1028] were < 6.70 and < 6.30.
On to `Cc1cnc2c(OC(F)F)cc(C(=O)NC[C@](O)(c3cc4c(c(-c5ccc(F)c(Cl)c5)n3)OC[C@@]4(C(N)=O)C(F)F)C3CC3)cc2c1` [Example 1029], for which the negative logarithm of the EC50 (pEC50) in assay [1] is > 6.70; in assay [2], > 6.30.
Taken in the same sequence, the figures for `COc1cc(C(=O)NC[C@](O)(c2cc3c(c(-c4ccc(F)cc4)n2)OC[C@]3(C(N)=O)C(F)F)C2CC2)cc2cc(Cl)c(C)nc12` [Example 1030] were > 6.70 and < 6.30.
Taken in the same sequence, the figures for `COc1cc(C(=O)NC[C@](O)(c2cc3c(c(-c4ccc(F)cc4)n2)OC[C@@]3(C(N)=O)C(F)F)C2CC2)cc2cc(Cl)c(C)nc12` [Example 1031] were > 6.70 and > 6.30.
Consider `COc1cc(C(=O)NC[C@](O)(c2cc3c(c(-c4ccc(F)c(Cl)c4)n2)OC[C@]3(C(N)=O)C(F)F)C2CC2)cc2cc(Cl)c(C)nc12` [Example 1032], for which the negative logarithm of the EC50 (pEC50) is < 6.70 in assay [1] and < 6.30 in assay [2].
The corresponding values for `COc1cc(C(=O)NC[C@](O)(c2cc3c(c(-c4ccc(F)c(Cl)c4)n2)OC[C@@]3(C(N)=O)C(F)F)C2CC2)cc2cc(Cl)c(C)nc12` [Example 1033] are > 6.70 and > 6.30.
As to `COc1cc(C(=O)NC[C@](O)(c2cc3c(c(-c4ccc5c(c4)OC(F)(F)O5)n2)OC[C@]3(C(N)=O)C(F)F)C(F)(F)F)cc2cn(C3CC3)nc12` [Example 1034], the pEC50 was < 6.70 in assay [1] and < 6.30 in assay [2].
The corresponding values for `COc1cc(C(=O)NC[C@](O)(c2cc3c(c(-c4ccc5c(c4)OC(F)(F)O5)n2)OC[C@@]3(C(N)=O)C(F)F)C(F)(F)F)cc2cn(C3CC3)nc12` [Example 1035] are > 6.70 and > 6.30.
For the compound `COc1cc(C(=O)NC[C@](O)(c2cc3c(c(-c4ccc5c(c4)OC(F)(F)O5)n2)OC[C@]3(C(N)=O)C(F)F)C(F)(F)F)cc2cc(Cl)c(C)nc12` [Example 1036], the negative-log EC50 (pEC50) in assay [1] is < 6.70; in assay [2], < 6.30.
The corresponding values for `COc1cc(C(=O)NC[C@](O)(c2cc3c(c(-c4ccc5c(c4)OC(F)(F)O5)n2)OC[C@@]3(C(N)=O)C(F)F)C(F)(F)F)cc2cc(Cl)c(C)nc12` [Example 1037] are > 6.70 and > 6.30.
The corresponding values for `COc1cc(C(=O)NC[C@](O)(c2cc3c(c(-c4ccc(F)c(F)c4F)n2)OC[C@]3(C(N)=O)C(F)F)C(F)(F)F)cc2cn(C3CC3)nc12` [Example 1038] are < 6.70 and < 6.30.
Taken in the same sequence, the figures for `COc1cc(C(=O)NC[C@](O)(c2cc3c(c(-c4ccc(F)c(F)c4F)n2)OC[C@@]3(C(N)=O)C(F)F)C(F)(F)F)cc2cn(C3CC3)nc12` [Example 1039] were > 6.70 and > 6.30.
For the compound `COc1cc(C(=O)NC[C@](O)(c2cc3c(c(-c4ccc(F)c(F)c4F)n2)OC[C@]3(C(N)=O)C(F)F)C(F)(F)F)cc2cc(Cl)c(C)nc12` [Example 1040], the pEC50 was > 6.70 in assay [1] and < 6.30 in assay [2].
With `COc1cc(C(=O)NC[C@](O)(c2cc3c(c(-c4ccc(F)c(F)c4F)n2)OC[C@@]3(C(N)=O)C(F)F)C(F)(F)F)cc2cc(Cl)c(C)nc12` [Example 1041], the results for the pEC50 in assay [1] and in assay [2] were > 6.70 and > 6.30, respectively.
Taken in the same sequence, the figures for `COc1cc(C(=O)NC[C@](O)(c2cc3c(c(-c4ccc5c(c4)OC(F)(F)O5)n2)OC[C@@]3(C(N)=O)C(F)F)C2CC2)cc2cn(C3(F)CC3)nc12` [Example 1042] were > 6.70 and > 6.30.
The corresponding values for `Cc1cnc2c(OC(F)F)cc(C(=O)NC[C@](O)(c3cc4c(c(-c5ccc6c(c5)OC(F)(F)O6)n3)OC[C@@]4(C(N)=O)C(F)F)C(F)(F)F)cc2c1` [Example 1043] are > 6.70 and > 6.30.
The corresponding values for `COc1cc(C(=O)NC[C@](O)(c2cc3c(c(-c4ccc5c(c4)OC(F)(F)O5)n2)OC[C@@]3(C(N)=O)C(F)F)C2CC2)cc2cn(C(F)F)nc12` [Example 1044] are > 6.70 and > 6.30.
On to `COc1cc(C(=O)NC[C@](O)(c2cc3c(c(-c4ccc(F)c(Cl)c4)n2)OC[C@@]3(C(N)=O)C(F)F)C2CC2)cc2cn(C(F)F)nc12` [Example 1045], for which the negative logarithm of the EC50 (pEC50) was > 6.70 in assay [1] and > 6.30 in assay [2].
Taken in the same sequence, the figures for `COc1cc(C(=O)NC[C@](O)(c2cc3c(c(-c4ccc(F)c(Cl)c4)n2)OC[C@@]3(CF)C(N)=O)C(F)(F)F)cc2cc(Cl)c(C)nc12` [Example 1046] were < 6.70 and < 6.30.
Taken in the same sequence, the figures for `COc1cc(C(=O)NC[C@](O)(c2cc3c(c(-c4ccc(F)c(Cl)c4)n2)OC[C@]3(CF)C(N)=O)C(F)(F)F)cc2cc(Cl)c(C)nc12` [Example 1047] were > 6.70 and > 6.30.
The corresponding values for `COc1cc(C(=O)NC[C@](O)(c2cc3c(c(-c4ccc(F)c(Cl)c4)n2)OC[C@]3(CF)C(N)=O)C(F)(F)F)ccc1OC1CC1` [Example 1049] are > 6.70 and > 6.30.
